Assay results reported in ChEMBL document CHEMBL3045532, “Synthesis and evaluation of novel prodrugs of naproxen” (Med Chem Res, 2011).
Each block holds one compound with its values, some of them ahead of it.

Key:
[1] = test system: Rattus norvegicus; assay: Anti-inflammatory activity in Rattus norvegicus Wistar (rat) assessed as inhibition of carrageenan-induced edema volume at 62.8 mg/kg, po measured after 90 min; format: functional; conditions: 1.5 h
[2] = test system: Rattus norvegicus; assay: Anti-inflammatory activity in Rattus norvegicus Wistar (rat) assessed as inhibition of carrageenan-induced edema volume at 62.8 mg/kg, po measured after 120 min; format: functional; conditions: 2 h
[3] = test system: Rattus norvegicus; assay: Gastrointestinal toxicity in Rattus norvegicus Wistar (rat) assessed as ulcer at 62.8 mg/kg, po; format: organism-based; parameters: dose 62.8 mg/kg, route oral; conditions: in vivo
[4] = test system: Rattus norvegicus; assay: Anti-inflammatory activity in Rattus norvegicus Wistar (rat) assessed as inhibition of carrageenan-induced edema volume at 62.8 mg/kg, po measured after 60 min; format: functional; conditions: 1 h
[5] = test system: Mus musculus; assay: Analgesic activity in Mus musculus (mouse) assessed as inhibition of acetic acid-induced writhing at 62.8 mg/kg, po pretreated 1 hr before acetic acid challenge; format: functional
[6] = test system: Rattus norvegicus; assay: Anti-inflammatory activity in Rattus norvegicus Wistar (rat) assessed as inhibition of carrageenan-induced edema volume at 62.8 mg/kg, po measured after 30 min; format: functional; conditions: 0.5 h
[7] = Prodrug conversion in phosphate buffer assessed as half-life for hydrolysis at pH 7.4; format: physicochemical
[8] = Prodrug conversion in acetate buffer assessed as half-life for hydrolysis at pH 4; format: physicochemical
[9] = Prodrug conversion in acetate buffer assessed as half-life for hydrolysis at pH 5; format: physicochemical
[10] = Prodrug conversion in acetate buffer assessed as half-life for hydrolysis at pH 3; format: physicochemical
[11] = test system: Rattus norvegicus; assay: Anti-inflammatory activity in Rattus norvegicus Wistar (rat) assessed as inhibition of carrageenan-induced edema volume at 63.2 mg/kg, po measured after 90 min; format: functional; conditions: 1.5 h
[12] = test system: Rattus norvegicus; assay: Anti-inflammatory activity in Rattus norvegicus Wistar (rat) assessed as inhibition of carrageenan-induced edema volume at 63.2 mg/kg, po measured after 120 min; format: functional; conditions: 2 h
[13] = test system: Rattus norvegicus; assay: Anti-inflammatory activity in Rattus norvegicus Wistar (rat) assessed as inhibition of carrageenan-induced edema volume at 63.2 mg/kg, po measured after 60 min; format: functional; conditions: 1 h
[14] = test system: Mus musculus; assay: Analgesic activity in Mus musculus (mouse) assessed as inhibition of acetic acid-induced writhing at 63.2 mg/kg, po pretreated 1 hr before acetic acid challenge; format: functional
[15] = test system: Rattus norvegicus; assay: Anti-inflammatory activity in Rattus norvegicus Wistar (rat) assessed as inhibition of carrageenan-induced edema volume at 63.2 mg/kg, po measured after 30 min; format: functional; conditions: 0.5 h
[16] = test system: Rattus norvegicus; assay: Gastrointestinal toxicity in Rattus norvegicus Wistar (rat) assessed as ulcer at 63.2 mg/kg, po; format: organism-based; parameters: dose 63.2 mg/kg, route oral; conditions: in vivo
[17] = test system: Rattus norvegicus; assay: Anti-inflammatory activity in Rattus norvegicus Wistar (rat) assessed as inhibition of carrageenan-induced edema volume at 66.0 mg/kg, po measured after 90 min; format: functional; conditions: 1.5 h
[18] = test system: Rattus norvegicus; assay: Anti-inflammatory activity in Rattus norvegicus Wistar (rat) assessed as inhibition of carrageenan-induced edema volume at 66.0 mg/kg, po measured after 120 min; format: functional; conditions: 2 h
[19] = test system: Rattus norvegicus; assay: Gastrointestinal toxicity in Rattus norvegicus Wistar (rat) assessed as ulcer at 66 mg/kg, po; format: organism-based; parameters: dose 66 mg/kg, route oral; conditions: in vivo
[20] = test system: Rattus norvegicus; assay: Anti-inflammatory activity in Rattus norvegicus Wistar (rat) assessed as inhibition of carrageenan-induced edema volume at 66.0 mg/kg, po measured after 60 min; format: functional; conditions: 1 h
[21] = test system: Mus musculus; assay: Analgesic activity in Mus musculus (mouse) assessed as inhibition of acetic acid-induced writhing at 66 mg/kg, po pretreated 1 hr before acetic acid challenge; format: functional
[22] = test system: Rattus norvegicus; assay: Anti-inflammatory activity in Rattus norvegicus Wistar (rat) assessed as inhibition of carrageenan-induced edema volume at 66.0 mg/kg, po measured after 30 min; format: functional; conditions: 0.5 h
[23] = species: Rattus norvegicus; assay: animal or person; conditions: Wistar, po, 1.5 h, read-out: INH
Description: Anti-inflammatory activity in Rattus norvegicus Wistar (rat) assessed as inhibition of carrageenan-induced edema volume at 50.0 mg/kg, po measured after 90 min

[24] = species: Rattus norvegicus; assay: animal or person; conditions: Wistar, po, 2 h, read-out: INH
Description: Anti-inflammatory activity in Rattus norvegicus Wistar (rat) assessed as inhibition of carrageenan-induced edema volume at 50.0 mg/kg, po measured after 120 min

[25] = species: Mus musculus; assay: animal or person; conditions: po, read-out: INH
Description: Analgesic activity in Mus musculus (mouse) assessed as inhibition of acetic acid-induced writhing at 50 mg/kg, po pretreated 1 hr before acetic acid challenge

[26] = species: Rattus norvegicus; assay: animal or person; conditions: Wistar, po, 0.5 h, read-out: INH
Description: Anti-inflammatory activity in Rattus norvegicus Wistar (rat) assessed as inhibition of carrageenan-induced edema volume at 50.0 mg/kg, po measured after 30 min

[27] = species: Rattus norvegicus; assay: animal or person; conditions: Wistar, po, 1 h, read-out: INH
Description: Anti-inflammatory activity in Rattus norvegicus Wistar (rat) assessed as inhibition of carrageenan-induced edema volume at 50.0 mg/kg, po measured after 60 min

t1/2 [7]: 25 h
t1/2 [8]: 44 h
t1/2 [9]: 88 h
t1/2 [10]: 115 h
SMILES: COc1ccc2cc(C(C)C(=O)OCC(OC(C)=O)C(OC(C)=O)C(OC(C)=O)C(/C=N/CC(=O)O)OC(C)=O)ccc2c1 (stereo not given)
inhibition in vivo at 62.8 mg/kg [1]: 58%
inhibition in vivo at 62.8 mg/kg [2]: 76%
Activity [3]: Non-toxic
inhibition in vivo at 62.8 mg/kg [4]: 37%
inhibition in vivo at 62.8 mg/kg [5]: 63.6%
inhibition in vivo at 62.8 mg/kg [6]: 58%

t1/2 [7]: 22 h
t1/2 [8]: 15 h
t1/2 [9]: 77 h
t1/2 [10]: 15 h
SMILES: COc1ccc2cc(C(C)C(=O)OCC(OC(C)=O)C(OC(C)=O)C(OC(C)=O)C(/C=N/[C@@H](C)C(=O)O)OC(C)=O)ccc2c1 (stereo not given in full)
inhibition in vivo at 63.2 mg/kg [11]: 49%
inhibition in vivo at 63.2 mg/kg [12]: 67%
inhibition in vivo at 63.2 mg/kg [13]: 29%
inhibition in vivo at 63.2 mg/kg [14]: 98.2%
inhibition in vivo at 63.2 mg/kg [15]: 62%
Activity [16]: Non-toxic

t1/2 [7]: 19 h
t1/2 [8]: 115 h
t1/2 [9]: 88 h
t1/2 [10]: 44 h
SMILES: COc1ccc2cc(C(C)C(=O)OCC(OC(C)=O)C(OC(C)=O)C(OC(C)=O)C(/C=N/[C@H](C(=O)O)C(C)C)OC(C)=O)ccc2c1 (stereo not given in full)
inhibition in vivo at 66 mg/kg [17]: 43%
inhibition in vivo at 66 mg/kg [18]: 64%
Activity [19]: Non-toxic
inhibition in vivo at 66 mg/kg [20]: 19%
inhibition in vivo at 66 mg/kg [21]: 63.6%
inhibition in vivo at 66 mg/kg [22]: 30%

SMILES: COc1ccc2cc([C@H](C)C(=O)O)ccc2c1 [NAPROXEN]
inhibition in vivo at 50 mg/kg [23]: 42%
inhibition in vivo at 50 mg/kg [24]: 58%
inhibition in vivo at 50 mg/kg [25]: 61.4%
inhibition in vivo at 50 mg/kg [26]: 10%
inhibition in vivo at 50 mg/kg [27]: 32%
